By IC50 is commonly meant the concentration at which inhibition is half-maximal.

The target in the experiment is T1, human CGT (Homo sapiens, UniProt Q16880).
T1 sequence (Q16880 21-541): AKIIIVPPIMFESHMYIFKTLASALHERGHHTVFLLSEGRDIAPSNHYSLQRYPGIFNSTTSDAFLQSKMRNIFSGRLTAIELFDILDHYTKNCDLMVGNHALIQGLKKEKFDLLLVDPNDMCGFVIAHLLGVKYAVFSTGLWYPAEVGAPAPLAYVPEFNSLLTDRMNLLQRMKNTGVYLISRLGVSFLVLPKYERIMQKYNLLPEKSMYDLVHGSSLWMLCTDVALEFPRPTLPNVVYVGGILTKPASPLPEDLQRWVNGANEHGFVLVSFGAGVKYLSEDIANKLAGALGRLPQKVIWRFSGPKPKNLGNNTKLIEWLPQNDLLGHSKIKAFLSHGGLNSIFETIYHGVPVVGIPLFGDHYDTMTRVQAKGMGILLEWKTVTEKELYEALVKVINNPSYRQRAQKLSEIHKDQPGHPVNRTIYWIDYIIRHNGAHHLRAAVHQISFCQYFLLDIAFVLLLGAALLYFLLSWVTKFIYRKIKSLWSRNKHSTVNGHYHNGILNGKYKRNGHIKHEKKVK
Briefly: CGT Enzyme Assay (Biological Example 2, RapidFire/MS/MS method with 0.01% Tween 80 added). The format is biochemical. As to conditions: enzymatic assay, CHO/CGT lysate. The method, then: Full-length human CGT cDNA was cloned into the BamH1/Xho1 site of pcDNA3.1 (+) mammalian expression vector (V90-20, Invitrogen, Carlsbad, Calif.) and the plasmid was transfected into Chinese hamster ovary (CHO) cells. Lysate was prepared using M-PER (Mammalian Protein Extraction Reagent, ThermoFisher Scientific, Grand Island, N.Y.) in the presence of a protease inhibitor cocktail (P8340, Sigma, Saint Louis, Mo.). Each 100 mm dish (100% confluent, approximately 1×10^7 cells) was lysed with 250 μL of M-PER containing protease inhibitors. Protein concentration was determined using a Pierce BCA protein assay kit (ThermoFisher Scientific). […] The final concentration of DMSO was 0.5% in both compound-treated and mock-treated samples. Each individual reaction was diluted with 80 μL of methanol:acetronitrile (1:3) containing 5 μM N-docdecanoyl-NBD-galactosylceramide (internal standard) to stop the reaction. 200 μL H2O:acetonitile (1:1) was added to precipitate the protein. After sufficient mixing, the plates were centrifuged at 2469 g for 38 minutes, 200 μl of supernatant was transferred to a LC-MS 96-deep well plate and a second spin was performed at 2469 g for 10 minutes. The final supernatant was injected in triplicate for RapidFire/MS/MS analysis.
The quantitative analysis of C6-NBD-dihydro-ceramide and C6-NBD-dihydro-galactosylceramide was performed on a Rapid Fire 360 high-throughput mass spectrometry system (Agilent Technologies, Palo Alto, Calif.) coupled with a API4000^+ triple quadrupole mass spectrometer (Applied Biosystems, Concord, Ontario, Canada). RapidFire software packages, including RapidFire Control panel, RapidFire UI and RapidFire Integrator (Agilent Technologies), were used to control the RapidFire instrument and to process data. Analyst 1.6.2 software packages (Applied Biosystems) were used to control the MS system and acquire MS data. 10 μL of sample was loaded on a micro-scale C4 solid-phase extraction (SPE) cartridge (Agilent Technologies) and salts were removed using water supplemented with 0.1% formic acid at the flow rate of 1.5 mL/min for 3 sec. C6-NBD-dihydro-ceramide and C6-NBD-dihydro-galactosylceramide were co-eluted into the mass spectrometer using acetonitrile containing 0.1% formic acid at the flow rate of 1.0 mL/min for 3 sec. The total cycle time of one injection was 8 secs. The MS/MS detection was performed in ESI negative mode.
The C6-NBD-dihydro-galactosylceramide reading was normalized first by dividing the peak area of C6-NBD-dihydro-galactosylceramide by the peak area of the internal standard, N-docdecanoyl-NBD-galactosylceramide.

`O=C1N(c2ccc(Br)cc2)C2CCCCC2N1c1ccc(Br)cc1` (stereo not shown) [Example 1] displayed an IC50 of 30 to 100 µM.
Next, `C[C@H]1[C@H](c2ccccc2)N(c2ccc(Br)cc2)C(=O)N1c1ccc(Br)cc1` [Example 2-1, (4S,5S)-1,3-bis(4-bromophenyl)-4-methyl-5-phenylimidazolidin-2-one]: 30 to 100 µM; `C[C@@H]1[C@@H](c2ccccc2)N(c2ccc(Br)cc2)C(=O)N1c1ccc(Br)cc1` [Example 2-2, (4R,5R)-1,3-bis(4-bromophenyl)-4-methyl-5-phenylimidazolidin-2-one]: under 1 µM; `C[C@H]1[C@@H](c2ccccc2)N(c2ccc(Br)cc2)C(=O)N1c1ccc(Br)cc1` [Example 2-3, (4S,5R)-1,3-bis(4-bromophenyl)-4-methyl-5-phenylimidazolidin-2-one]: 1 to 10 µM.
`Cc1cccc(C2C(C)N(c3ccc(Cl)cc3)C(=O)N2c2ccc(Cl)cc2)c1` (stereo not shown) [Example 3] had an IC50 of 30 to 100 µM.
Next, `C[C@H]1[C@H](c2cccc(OC(F)(F)F)c2)N(c2ccc(Cl)cc2)C(=O)N1c1ccc(Cl)cc1` [Example 4-1, (4S,5S)-1,3-bis(4-chlorophenyl)-4-methyl-5-(3-(trifluoromethoxy)phenyl)imidazolidin-2-one]: 10 to 30 µM; `C[C@@H]1[C@@H](c2cccc(OC(F)(F)F)c2)N(c2ccc(Cl)cc2)C(=O)N1c1ccc(Cl)cc1` [Example 4-2, (4R,5R)-1,3-bis(4-chlorophenyl)-4-methyl-5-(3-(trifluoromethoxy)phenyl)imidazolidin-2-one]: 10 to 30 µM; `C[C@@H]1[C@@H](c2cccc(C#N)c2)N(c2ccc(Cl)cc2)C(=O)N1c1ccc(Cl)cc1` [Example 5-1, 3-((4R,5R)-1,3-bis(4-chlorophenyl)-5-methyl-2-oxoimidazolidin-4-yl)benzonitrile]: 10 to 30 µM.
`C[C@H]1[C@H](c2cccc(C#N)c2)N(c2ccc(Cl)cc2)C(=O)N1c1ccc(Cl)cc1` [Example 5-2, 3-((4S,5S)-1,3-bis(4-chlorophenyl)-5-methyl-2-oxoimidazolidin-4-yl)benzonitrile]: the concentration for half-maximal inhibition (IC50) lay in the range of 10 to 30 µM.
In the case of `CC1(C)[C@@H](c2cccc(C(F)(F)F)c2)N(c2ccc(Cl)cc2)C(=O)N1c1ccc(Cl)cc1` [Example 6-1, (R)-1,3-bis(4-chlorophenyl)-4,4-dimethyl-5-(3-(trifluoromethyl)phenyl)imidazolidin-2-one] it was 10 to 30 µM; in that of `CC1(C)[C@H](c2cccc(C(F)(F)F)c2)N(c2ccc(Cl)cc2)C(=O)N1c1ccc(Cl)cc1` [Example 6-2, (S)-1,3-bis(4-chlorophenyl)-4,4-dimethyl-5-(3-(trifluoromethyl)phenyl)imidazolidin-2-one], under 1 µM; in that of `CC1(C)C(c2cccc(C(F)(F)F)c2)N(c2ccc(Cl)cc2)C(=O)N1c1ccc(Cl)cc1` (stereo not shown) [Example 6], under 1 µM.
In the case of `CC1(C)[C@@H](c2cccc(OC(F)(F)F)c2)N(c2ccc(Cl)cc2)C(=O)N1c1ccc(Cl)cc1` [Example 7-1, (R)-1,3-bis(4-chlorophenyl)-4,4-dimethyl-5-(3-(trifluoromethoxy)phenyl)imidazolidin-2-one] it was 1 to 10 µM.
In the case of `CC1(C)[C@H](c2cccc(OC(F)(F)F)c2)N(c2ccc(Cl)cc2)C(=O)N1c1ccc(Cl)cc1` [Example 7-2, (S)-1,3-bis(4-chlorophenyl)-4,4-dimethyl-5-(3-(trifluoromethoxy)phenyl)imidazolidin-2-one], the IC50 was under 1 µM.
In the case of `CC1(C)C(c2cccc(OC(F)(F)F)c2)N(c2ccc(Cl)cc2)C(=O)N1c1ccc(Cl)cc1` (stereo not shown) [Example 7] it was under 1 µM.
The molecule `CC1(C)[C@@H](c2cccc(Cl)c2)N(c2ccc(Cl)cc2)C(=O)N1c1ccc(Cl)cc1` [Example 8-1, (R)-5-(3-chlorophenyl)-1,3-bis(4-chlorophenyl)-4,4-dimethylimidazolidin-2-one] yielded an IC50 of 10 to 30 µM.
Next, `CC1(C)[C@H](c2cccc(Cl)c2)N(c2ccc(Cl)cc2)C(=O)N1c1ccc(Cl)cc1` [Example 8-2, (S)-5-(3-chlorophenyl)-1,3-bis(4-chlorophenyl)-4,4-dimethylimidazolidin-2-one]: under 1 µM.
`CC1(C)C(c2cccc(Cl)c2)N(c2ccc(Cl)cc2)C(=O)N1c1ccc(Cl)cc1` (stereo not shown) [Example 8] returned an IC50 of under 1 µM.
In turn, `CC1(C)[C@@H](c2cccc(OC(F)F)c2)N(c2ccc(Cl)cc2)C(=O)N1c1ccc(Cl)cc1` [Example 9-1, (R)-1,3-bis(4-chlorophenyl)-5-(3-(difluoromethoxy)phenyl)-4,4-dimethylimidazolidin-2-one] gave an IC50 of 10 to 30 µM.
In the case of `CC1(C)[C@H](c2cccc(OC(F)F)c2)N(c2ccc(Cl)cc2)C(=O)N1c1ccc(Cl)cc1` [Example 9-2, (S)-1,3-bis(4-chlorophenyl)-5-(3-(difluoromethoxy)phenyl)-4,4-dimethylimidazolidin-2-one] it was under 1 µM.
The molecule `CC1(C)C(c2cccc(OC(F)F)c2)N(c2ccc(Cl)cc2)C(=O)N1c1ccc(Cl)cc1` (stereo not shown) [Example 9] returned a 50% inhibitory concentration (IC50) of under 1 µM.
In the case of `CC1(C)[C@@H](c2cccc(C#N)c2)N(c2ccc(Cl)cc2)C(=O)N1c1ccc(Cl)cc1` [Example 10-1, (R)-3-(1,3-bis(4-chlorophenyl)-5,5-dimethyl-2-oxoimidazolidin-4-yl)benzonitrile] it was 10 to 30 µM; in that of `CC1(C)[C@H](c2cccc(C#N)c2)N(c2ccc(Cl)cc2)C(=O)N1c1ccc(Cl)cc1` [Example 10-2, (S)-3-(1,3-bis(4-chlorophenyl)-5,5-dimethyl-2-oxoimidazolidin-4-yl)benzonitrile], under 1 µM.
Next, `C[C@@H]1[C@@H](c2cccc(OC(F)(F)F)c2)N(c2ccc(Br)cc2)C(=O)N1c1ccc(Br)cc1` [Example 11-1, (4R,5R)-1,3-bis(4-bromophenyl)-4-methyl-5-(3-(trifluoromethoxy)phenyl)imidazolidin-2-one]: 1 to 10 µM; `C[C@H]1[C@H](c2cccc(OC(F)(F)F)c2)N(c2ccc(Br)cc2)C(=O)N1c1ccc(Br)cc1` [Example 11-2, (4S,5S)-1,3-bis(4-bromophenyl)-4-methyl-5-(3-(trifluoromethoxy)phenyl)imidazolidin-2-one]: under 1 µM; `O=C1N(c2ccc(Cl)cc2)[C@H]2CCC[C@@]2(c2cccc(OC(F)(F)F)c2)N1c1ccc(Cl)cc1` [Example 12-1, (3aS,6aS)-1,3-bis(4-chlorophenyl)-3a-(3-(trifluoromethoxy)phenyl)hexahydrocyclopenta[d]imidazol-2(1H)-one]: 1 to 10 µM.
Next, `O=C1N(c2ccc(Cl)cc2)[C@@H]2CCC[C@]2(c2cccc(OC(F)(F)F)c2)N1c1ccc(Cl)cc1` [Example 12-2, (3aR,6aR)-1,3-bis(4-chlorophenyl)-3a-(3-(trifluoromethoxy)phenyl)hexahydrocyclopenta[d]imidazol-2(1H)-one]: 10 to 30 µM; `O=C1N(c2ccc(Cl)cc2)C2CCCC2(c2cccc(OC(F)(F)F)c2)N1c1ccc(Cl)cc1` (stereo not shown) [Example 12]: 1 to 10 µM; `N#Cc1cccc([C@]23CCCC[C@H]2N(c2ccc(Cl)cc2)C(=O)N3c2ccc(Cl)cc2)c1` [Example 14-1, 3-((3aR,7aR)-1,3-bis(4-chlorophenyl)-2-oxooctahydro-3aH-benzo[d]imidazol-3a-yl)benzonitrile]: 1 to 10 µM.
With `N#Cc1cccc([C@@]23CCCC[C@@H]2N(c2ccc(Cl)cc2)C(=O)N3c2ccc(Cl)cc2)c1` [Example 14-2, 3-((3aS,7aS)-1,3-bis(4-chlorophenyl)-2-oxooctahydro-3aH-benzo[d]imidazol-3a-yl)benzonitrile], the IC50 was in the range of 10 to 30 µM.
In the case of `N#Cc1cccc(C23CCCCC2N(c2ccc(Cl)cc2)C(=O)N3c2ccc(Cl)cc2)c1` (stereo not shown) [Example 14] it was under 1 µM.

The record behind these values is patent publication US20190134005A1 (BioMarin Pharmaceutical Inc., priority 2016, published 2019).
